Measured values published in US11344546B2, “Benzamide compounds” (Recurium IP Holdings, LLC, priority 2018, dated 2022).

Tested on: RS4;11 cells
Assay: RS4;11 cell proliferation assay (CellTiter-Glo)
Type: cell-based
Conditions: Homo sapiens, 48 h compound treatment, read-out: RS4;11 (nM) CTG IC50
Procedure: Cell proliferation was measured using the CellTiter-Glo@ Luminescent Cell Viability Assay. The assay involved the addition of a single reagent (CellTiter-Glo® Reagent) directly to cells cultured in serum-supplemented medium. RS4;11 (ATC, CRL-1873) cells were cultured according to ATCC recommendations and were seeded at 50,000 cells per well. NCI-H1963 cells (ATCC CRL-5982) were cultured according to ATCC recommendations and seeded at 12,000 cells per well.
Each compound evaluated was prepared as a DMSO stock solution (10 mM). Compounds were tested in duplicate on each plate, with a 10-point serial dilution curve (1:3 dilution). Compound treatment (1.0 μL) was added from the compound dilution plate to the cell plate. The highest compound concentration was 10 μM (final), with a 0.1% final DMSO concentration. Plates were then incubated at 37° C., 5% CO2. After 48 h of compound treatment for RS4;11 or 72 h for NCI-H1963, cell plates were equilibrated at rt for approximately 30 mins. An equi-volume amount of CellTiter-Glo@ Reagent (40 μL) was added to each well. Plates were mixed for 2 mins on an orbital shaker to induce cell lysis and then incubated at RT for 10 mins to stabilize the luminescent signal. Luminescence was recorded using a Envision plate reader according to CellTiter-Glo protocol. IC50 of each compound was calculated using GraphPad Prism by nonlinear regression analysis.

SMILES | IC50
CC1(C)CCC(CN2CCN(c3ccc(C(=O)NS(=O)(=O)c4ccc(NCC5CC6(COC6)C5)c([N+](=O)[O-])c4)c(Oc4cnc5[nH]ccc5c4)c3)CC2)=C(C23CC(Cl)(C2)C3)C1 [Example 2, 2-(1H-pyrrolo[2,3-b]pyridin-5-yl-oxy)-N-(4-(2-oxaspiro[3.3]heptan-6-yl-methylamino)-3-nitrophenylsulfonyl)-4-(4-((2-(3-chlorobicyclo[1.1.1]pentan-1-yl)-4,4-dimethylcyclohex-1en-yl)methyl)piperazin-1-yl)benzamide] | < 100 nM
CC1(C)CCC(C23CC(Cl)(C2)C3)=C(CN2CCN(c3ccc(C(=O)NS(=O)(=O)c4ccc(N[C@H](CCN5CCOCC5)CSc5ccccc5)c(S(=O)(=O)C(F)(F)F)c4)cc3)CC2)C1 [Example 45, (R)-4-(4-((2-(3-Chlorobicyclo[1.1.1]pentan-1-yl)-5,5-dimethylcyclohex-1-en-1-yl)methyl)piperazin-1-yl)-N-((4-((4-morpholino-1-(phenylthio)butan-2-yl)amino)-3-((trifluoromethyl)sulfonyl)phenyl)sulfonyl)benzamide] | > 1000 nM
CC1(C)CCC(CN2CCN(c3ccc(C(=O)NS(=O)(=O)c4ccc(NCCN5CCC6(CCOC6)CC5)c([N+](=O)[O-])c4)c(Oc4cnc5[nH]ccc5c4)c3)CC2)=C(C23CC(Cl)(C2)C3)C1 [Example 3, 2-((1H-pyrrolo[2,3-b]pyridin-5-yl)oxy)-N-((4-((2-(2-oxa-8-azaspiro[4.5]decan-8-yl)ethyl)amino)-3-nitrophenyl)sulfonyl)-4-(4-((2-(3-chlorobicyclo[1.1.1]pentan-1-yl)-4,4-dimethylcyclohex-1-en-1-yl)methyl)piperazin-1-yl)benzamide] | 100 to 1000 nM
CC1(C)CCC(CN2CCN(c3ccc(C(=O)NS(=O)(=O)c4ccc(OCC5CCOCC5)c([N+](=O)[O-])c4)c(Oc4cnc5[nH]ccc5c4)c3)CC2)=C(C23CC(C)(C2)C3)C1 [Example 22, 2-(1H-pyrrolo[2,3-b]pyridin-5-yloxy)-4-(4-((4,4-dimethyl-2-(3-methylbicyclo[1.1.1]pentan-1-yl)cyclohex-1-enyl)methyl)piperazin-1-yl)-N-(3-nitro-4-((tetrahydro-2H-pyran-4-yl)methoxy)phenylsulfonyl)benzamide] | < 100 nM
CC1(C)CCC(CN2CCN(c3ccc(C(=O)NS(=O)(=O)c4ccc(OC5COC6(CC6)C5)c([N+](=O)[O-])c4)c(Oc4cnc5[nH]ccc5c4)c3)CC2)=C(C23CC(Cl)(C2)C3)C1 (stereo not shown) [Example 6, 2-((1H-pyrrolo[2,3-b]pyridin-5-yl)oxy)-N-((4-((4-oxaspiro[2.4]heptan-6-yl)oxy)-3-nitrophenyl)sulfonyl)-4-(4-((2-(3-chlorobicyclo[1.1.1]pentan-1-yl)-4,4-dimethylcyclohex-1-en-1-yl)methyl)piperazin-1-yl)benzamide] | > 1000 nM
CC1(C)CCC(CN2CCN(c3ccc(C(=O)NS(=O)(=O)c4ccc(N[C@H](CCN5CCOCC5)CSc5ccccc5)c(S(=O)(=O)C(F)(F)F)c4)cc3)CC2)=C(C23CC(C(F)(F)F)(C2)C3)C1 [Example 54, (R)-4-(4-((4,4-dimethyl-2-(3-(trifluoromethyl)bicyclo[1.1.1]pentan-1-yl)cyclohex-1-en-1-yl)methyl)piperazin-1-yl)-N-((4-((4-morpholino-1-(phenylthio)butan-2-yl)amino)-3-((trifluoromethyl)sulfonyl)phenyl)sulfonyl)benzamide] | > 1000 nM
CC1(C)CCC(CN2CCN(c3ccc(C(=O)NS(=O)(=O)c4ccc(NCCN5CCOCC5)c([N+](=O)[O-])c4)c(Oc4cnc5[nH]ccc5c4)c3)CC2)=C(C23CC(C)(C2)C3)C1 [Example 21, 2-(1H-pyrrolo[2,3-b]pyridin-5-yloxy)-4-(4-((4,4-dimethyl-2-(3-methylbicyclo[1.1.1]pentan-1-yl)cyclohex-1-enyl)methyl)piperazin-1-yl)-N-(4-(2-morpholinoethylamino)-3-nitrophenylsulfonyl)benzamide] | 100 to 1000 nM
CC1(C)CCC(CN2CCN(c3ccc(C(=O)NS(=O)(=O)c4ccc(NCC5CC6(CCOCC6)C5)c([N+](=O)[O-])c4)c(Oc4cnc5[nH]ccc5c4)c3)CC2)=C(C23CC(Cl)(C2)C3)C1 [Example 5, 2-((1H-pyrrolo[2,3-b]pyridin-5-yl)oxy)-N-((4-(((7-oxaspiro[3.5]nonan-2-yl)methyl)amino)-3-nitrophenyl)sulfonyl)-4-(4-((2-(3-chlorobicyclo[1.1.1]pentan-1-yl)-4,4-dimethylcyclohex-1-en-1-yl)methyl)piperazin-1-yl)benzamide] | 100 to 1000 nM
CC1(C)CCC(CN2CCN(c3ccc(C(=O)NS(=O)(=O)c4ccc(OCC5CC6(COC6)C5)c([N+](=O)[O-])c4)c(Oc4cnc5[nH]ccc5c4)c3)CC2)=C(C23CC(Cl)(C2)C3)C1 [Example 8, 2-(1H-pyrrolo[2,3-b]pyridin-5-yloxy)-N-(4-(2-oxaspiro[3.3]heptan-6-ylmethoxy)-3-nitrophenylsulfonyl)-4-(4-((2-(3-chlorobicyclo[1.1.1]pentan-1-yl)-4,4-dimethylcyclohex-1-enyl)methyl)piperazin-1-yl)benzamide] | 100 to 1000 nM
O=C(NS(=O)(=O)c1ccc(NCC2CCOCC2)c([N+](=O)[O-])c1)c1ccc(N2CCN(CC3=C(C45CC(Cl)(C4)C5)CCCC3)CC2)cc1Oc1cnc2[nH]ccc2c1 [Example 72, 2-((1H-pyrrolo[2,3-b]pyridin-5-yl)oxy)-4-(4-((2-(3-chlorobicyclo[1.1.1]pentan-1-yl)cyclohex-1-en-1-yl)methyl)piperazin-1-yl)-N-((3-nitro-4-(((tetrahydro-2H-pyran-4-yl)methyl)amino)phenyl)sulfonyl)benzamide] | > 1000 nM
CC1(C)CCC(CN2CCN(c3ccc(C(=O)NS(=O)(=O)c4ccc(N[C@H](CCN5CCOCC5)CSc5ccccc5)c(S(=O)(=O)C(F)(F)F)c4)cc3)CC2)=C(C23CC(C)(C2)C3)C1 [Example 52, (R)-4-(4-((4,4-Dimethyl-2-(3-methylbicyclo[1.1.1]pentan-1-yl)cyclohex-1-en-1-yl)methyl)piperazin-1-yl)-N-((4-((4-morpholino-1-(phenylthio)butan-2-yl)amino)-3-((trifluoromethyl)sulfonyl)phenyl)sulfonyl)benzamide] | 100 to 1000 nM
O=C(NS(=O)(=O)c1ccc(NCC2CCOCC2)c([N+](=O)[O-])c1)c1ccc(N2CCN(CC3=C(C45CC(C(F)F)(C4)C5)CC4(CCC4)CC3)CC2)cc1Oc1cnc2[nH]ccc2c1 [Example 42, 2-((1H-pyrrolo[2,3-b]pyridin-5-yl)oxy)-4-(4-((6-(3-(difluoromethyl)bicyclo[1.1.1]pentan-1-yl)spiro[3.5]non-6-en-7-yl)methyl)piperazin-1-yl)-N-((3-nitro-4-(((tetrahydro-2H-pyran-4-yl)methyl)amino)phenyl)sulfonyl)benzamide] | < 100 nM
CCC12CC(C3=C(CN4CCN(c5ccc(C(=O)NS(=O)(=O)c6ccc(NCC7(F)CCN(C)CC7)c([N+](=O)[O-])c6)c(Oc6cnc7[nH]ccc7c6)c5)CC4)CCC(C)(C)C3)(C1)C2 [Example 24, 2-(1H-pyrrolo[2,3-b]pyridin-5-yloxy)-4-(4-((2-(3-ethylbicyclo[1.1.1]pentan-1l-yl)-4,4-dimethylcyclohex-1l-enyl)methyl)piperazin-1-yl)-N-(4-((4-fluoro-1l-methylpiperidin-4-yl)methylamino)-3-nitrophenylsulfonyl)benzamide] | < 100 nM
CC1(C)CCC(CN2CCN(c3ccc(C(=O)NS(=O)(=O)c4ccc(NCC5CC6(CCOCC6)C5)c([N+](=O)[O-])c4)c(Oc4cnc5[nH]ccc5c4)c3)CC2)=C(C23CC(C(F)F)(C2)C3)C1 [Example 37, 2-((1H-pyrrolo[2,3-b]pyridin-5-yl)oxy)-N-((4-(((7-oxaspiro[3.5]nonan-2-yl)methyl)amino)-3-nitrophenyl)sulfonyl)-4-(4-((2-(3-(difluoromethyl)bicyclo[1.1.1]pentan-1-yl)-4,4-dimethylcyclohex-1-en-1-yl)methyl)piperazin-1-yl)benzamide] | < 100 nM
CC1(C)CCC(CN2CCN(c3ccc(C(=O)NS(=O)(=O)c4ccc(OCCN5CC6(COC6)C5)c([N+](=O)[O-])c4)c(Oc4cnc5[nH]ccc5c4)c3)CC2)=C(C23CC(Cl)(C2)C3)C1 [Example 7, 2-(1H-pyrrolo[2,3-b]pyridin-5-yloxy)-N-(4-(2-(2-oxa-6-azaspiro[3.3]heptan-6-yl)ethoxy)-3-nitrophenylsulfonyl)-4-(4-((2-(3-chlorobicyclo[0.1.1]pentan-1-yl)-4,4-dimethylcyclohex-1-enyl)methyl)piperazin-1-yl)benzamide] | > 1000 nM
CC12CC(C3=C(CN4CCN(c5ccc(C(=O)NS(=O)(=O)c6ccc(NCC7(F)CCOCC7)c([N+](=O)[O-])c6)c(Oc6cnc7[nH]ccc7c6)c5)CC4)CCC4(CCC4)C3)(C1)C2 [Example 43, 2-((1H-pyrrolo[2,3-b]pyridin-5-yl)oxy)-N-((4-(((4-fluorotetrahydro-2H-pyran-4-yl)methyl)amino)-3-nitrophenyl)sulfonyl)-4-(4-((6-(3-methylbicyclo[1.1.1]pentan-1-yl)spiro[3.5]non-6-en-7-yl)methyl)piperazin-1-yl)benzamide] | 100 to 1000 nM
